For this test, the target named is T1, human GPR119 receptor (Homo sapiens, UniProt Q8TDV5).
T1 construct: expressed in transfected cells
T1 sequence (Q8TDV5 1-335): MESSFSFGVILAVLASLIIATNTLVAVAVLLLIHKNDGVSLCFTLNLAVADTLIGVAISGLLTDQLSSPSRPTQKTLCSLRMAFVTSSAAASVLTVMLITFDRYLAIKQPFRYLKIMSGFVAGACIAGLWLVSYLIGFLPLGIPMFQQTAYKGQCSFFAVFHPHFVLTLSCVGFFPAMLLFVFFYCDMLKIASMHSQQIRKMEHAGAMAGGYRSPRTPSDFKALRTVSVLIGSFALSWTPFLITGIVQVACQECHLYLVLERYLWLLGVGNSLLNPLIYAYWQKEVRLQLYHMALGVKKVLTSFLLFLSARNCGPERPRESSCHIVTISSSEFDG
Nature of the test: Human GPR119 activity assay (cAMP HTRF in HEK293-hGPR119 cells). The format is cell-based. As to conditions: cAMP stimulation in HEK293 cells stably expressing human GPR119, 20 min incubation, read-out: Agonist potency at the human GPR119, EC50. Here is the method: Human GPR119 Activity Assay
Agonists to the human GPR119 receptor were characterized by measuring human GPR119 receptor-mediated stimulation of cyclic AMP (cAMP) in HEK 293 cells expressing the human GPR119 receptor.
Briefly, cAMP content was determined using a cAMP kit based on HTRF technology (Homogeneous Time-Resolved Fluorescence, Cisbio Cat. no. 62AM2PEC). HEK293 cells stably expressing the human GPR119 receptor (HEK293-hGPR119 cells) were cultured in DMEM (Gibco #31966-021) supplemented with 10% Bovine Calf Serum (Hyclone #SH30072.03), and, 500 μg/mL Hygromycin B (Roche Diagnostics 843555). At 80% confluency, cells were detached using Trypsine and aliquoted at a density of 5×10^6 cells/mL in freezing medium (DMEM (Gibco # 31966-021), 20% BCS (Hyclone #SH30072.03), 10% DMSO (Sigma #D2650) and stored at −135° C. On the experimental day, HEK293-hGPR119 cells were thawn and diluted to 0.4×10^6 cells/mL in assay buffer (1×HBSS (Gibco Cat. no. 14025-049), 20 mM Hepes (Gibco Cat. no. 15630-056), 0.1% BSA, pH 7.4) and incubated with test substances for 20 min at room temperature. After addition of HTRF reagents diluted in lysis buffer, the 96- or 384-well plates were incubated 1 hour, followed by measuring the fluorescence ratio at 665 nm/620 nm. […]
In general terms: TR-FRET usually uses a lanthanide donor and a delayed reading to cut background.

Regarding `CC(C)(C)OC(=O)N1CCC(COc2ccc(-c3ccc(S(C)(=O)=O)cc3)nn2)CC1` [Example A1, tert-Butyl 4-[({6-[4-(methylsulfonyl)phenyl]pyridazin-3-yl}oxy)methyl]piperidine-1-carboxylate], the concentration for a half-maximal effect (EC50) stood at 46 nM.
Consider `CCN(Cc1ccc(-c2ccc(S(C)(=O)=O)cc2)nn1)C1CCN(C(=O)OC(C)(C)C)CC1` [Example A4, tert-Butyl 4-[ethyl({6-[4-(methylsulfonyl)phenyl]pyridazin-3-yl}methyl)amino]-piperidine-1-carboxylate], for which the EC50 is 83 nM.

By EC50 is commonly meant the concentration giving half of the maximal effect.

The record behind these values is patent publication US20080058339A1, “New compounds” (Biovitrum, priority 2006, published 2008).
